Assay results from patent US4416877A, “Anti-atherosclerotic pharmaceutical compositions containing diphosphonate compounds” (priority 1979, dated 1983).
Read-outs that look alike come from different tables or passages of the source.

What was measured:
tissue cholesterol = assay: Effects in cholesterol fed rats (serum, liver and aorta lipids); format: in vivo; conditions: for change in vivo at 200 mg/kg/day: Rattus norvegicus
Procedure, shortened: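 Rats given a high fat–high cholesterol diet (4.5% cholesterol, 1.8% sodium cholate) for 10 days to 3 months, then normal food plus compound at 200 mg/kg/day for 10 days to 3 months. Liver and aorta lipids Folch-extracted; total lipids by sulfophosphovanillic reaction, cholesterol by Liebermann–Burchard or enzymatic method. Values expressed as % of control.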

Oral LD50 toxicity = format: in vivo
From the text: Following the extensive pharmacological screening of these compounds, using over 2000 animals, those showing the most potential were then subjected to toxicity testing for further selection relative to their activity/toxicity risk profiles
By way of LD50 (Lethal Dose 50) the methyl diphosphonates were discovered to have a significant lower degree of toxicity. […] This represents a significant six fold difference in toxicity.

[1] = test system: alpha/beta cholesterol ratio; assay: Comparison of clofibrate, gemfibrozil and fenofibrate to compound 16: alpha/beta cholesterol ratio in normal Wistar rats; format: in vivo; conditions: 100 mg/kg for 10 days, n = 5
Method: It should be noted that these diphosphonate compounds are different and novel in comparison to the classical hypolipidemic compounds as illustrated in Table V. The diphosphonate ester used for comparison was the only one to increase the alpha/beta cholesterol ratio in control rats.
Each drug was administered at 100 mg/kg for 10 days

[2] = Weight of fat tissue from rats treated for 90 days; format: in vivo, male and female rats
Method: Treating male and female rats with 40, 400 and 800 mg/kg of compound 16 per day for 90 days produced a sustained dose response augmentation in serum high density lipoprotein cholesterol (HDL-C or α-cholesterol) as high as 220% above controls at high dose level (Table VI).

lipoprotein cholesterol = assay: Lipoprotein cholesterol in cholesterol pre-fed rabbits; format: in vivo; conditions: 200 mg/kg per day, 4 months, n = 5
From the text: Animals were fed a cholesterol rich diet for 8 weeks before treatment was
started which continued for 4 months without cholesterol supplement.

[3] = Atheromateous surface involvement and intima thickening of aortas in cholesterol pre-fed rabbits; format: in vivo; conditions: 4 months
α/β cholesterol ratio = assay: Lipoprotein changes produced by one dose in a Cynomolgus monkey; format: in vivo; conditions: for α/β cholesterol ratio: 250 mg/kg p.o.
renin [4] = assay: Renin activity in normal monkeys treated for 60 days; format: in vivo, Cynomolgus monkeys
From the text: In order to further elucidate the mechanism of the previously observed hypotensive activity, the renin-angiotensin system was also monitored in these animals at the same time. […] However at this dosage concentration the inhibition appeared to be time dependent.

renin [5] = assay: Renin activity in Cynomolgus monkeys fed simultaneously a high cholesterol diet; format: in vivo; conditions: for Renin Activity: n = 7
Method: | Dose: 25 mg d.i.d. per day

[6] = cholesterol fed rats (C.F), 200 mg/kg/day
[7] = simultaneous cholesterol-compound 16 treatment

COP(=O)(OC)OC(c1ccc(Cl)cc1)P(=O)(OC)OC (stereo not drawn) [Compound 16, Dimethyl α(dimethoxyphosphinyl) p-chlorobenzyl phosphate]
change in vivo at 200 mg/kg/day (tissue cholesterol; cholesterol fed rats (C.F), 200 mg/kg/day, read-out: Liver Chol. (% control values)): -57% | change in vivo at 200 mg/kg/day (tissue cholesterol; cholesterol fed rats (C.F), 200 mg/kg/day, read-out: Liver Total Lipids (% control values)): -32% | liver total lipids and/or liver cholesterol (tissue cholesterol; cholesterol fed rats): decreased significantly | Aorta Chol. (% control values) (tissue cholesterol; [6]): -30% | Aorta Total Lipids (% control values) (tissue cholesterol; [6]): -37% | Serum Chol. α/β (% control values) (tissue cholesterol; [6]): +169% | LD50 (Oral LD50 toxicity; in vivo, oral): 3040 mg/kg | difference in toxicity (LD50, compound 16 vs compound 24) (Oral LD50 toxicity; oral LD50): six fold | alpha/beta Cholesterol Ratio [1]: 9.69 ± 0.76 | decreasing the weight of fat tissue ([2]; 40, 400 and 800 mg/kg): impressive dose response effect in decreasing the weight of fat tissue | Weight of fat tissue ([2]; females, 40 mg/kg, n = 10): 1.33 ± 0.66 g | Weight of fat tissue ([2]; females, 400 mg/kg, n = 5): 0.39 ± 0.24 g | Weight of fat tissue ([2]; females, 800 mg/kg, n = 5): 0.48 ± 0.14 g | Weight of fat tissue ([2]; males, 40 mg/kg, n = 8): 2.49 ± 0.94 g | Weight of fat tissue ([2]; males, 400 mg/kg, n = 5): 1.95 ± 0.52 g | Weight of fat tissue ([2]; males, 800 mg/kg, n = 5): 0.97 ± 0.30 g | Total Cholesterol (lipoprotein cholesterol): 127.0 ± 68.0 | α-chol (lipoprotein cholesterol): 41.1 ± 11.1 | α/β-ratio (lipoprotein cholesterol): 0.94 | β-chol (lipoprotein cholesterol): 63.4 ± 43.0 | α/β-ratio (lipoprotein cholesterol; listed as Cpd 16): 0.94 ± 0.20 | Arch Intima/Media Ratio ([3]; 100 mg/kg/day, n = 4): 0.79 | Arterial Wall Thickness, Arch Intima ([3]; 100 mg/kg/day, n = 4): 41.82 ± 0.93 Units in Area | Arterial Wall Thickness, Thoracic Intima ([3]; 100 mg/kg/day, n = 4): 7.66 ± 0.12 Units in Area | Surface Involved in Atheromateous Plaques, Arch ([3]; 100 mg/kg/day, n = 4): 88 ± 9% | Surface Involved in Atheromateous Plaques, Thoracic ([3]; 100 mg/kg/day, n = 4): 50 ± 15% | Surface Involved in Atheromateous Plaques, Total Aorta ([3]; 100 mg/kg/day, n = 4): 68 ± 12% | Thoracic Intima/Media Ratio ([3]; 100 mg/kg/day, n = 4): 0.23 | aorta intimal thickening ([3]; cholesterol pre-fed rabbits): decreased aorta intimal thickening | atherosclerosis surface involvement ([3]; cholesterol pre-fed rabbits): decreased atherosclerosis surface involvement | α/β cholesterol ratio (α/β cholesterol ratio; +1h): 0.71 | α/β cholesterol ratio (α/β cholesterol ratio; +2h): 0.82 | α/β cholesterol ratio (α/β cholesterol ratio; +3h): 0.83 | α/β cholesterol ratio (α/β cholesterol ratio; +5h): 0.89 | α/β cholesterol ratio (α/β cholesterol ratio; +6h): 0.92 | α/β ratio (α/β cholesterol ratio; additional administration, 5 days): 0.88 | increase in α/β cholesterol levels (α/β cholesterol ratio; single oral dose 250 mg/kg, 6 hours): 39% | Renin Activity (renin [4]; controls 5.9±0.9): 0.3±0.1 ng AI /ml/h | inhibition of renin (renin [4]; male and female monkeys): highly significant and almost complete inhibition of renin | Renin Activity (renin [5]; 30 days on high cholesterol diet): 0.8 ± 0.5 ng AI /ml/h | Renin Activity (renin [5]; 60 days on high cholesterol diet): 1.1 ± 0.2 ng AI /ml/h | renin inhibition (renin [5]; [7]): essentially completely inhibited | renin inhibition, fold (renin [5]; [7]): 20 fold
